Two compounds from patent US20080125445A1, “5,6-Dialkyl-7-Amino-Azolopyrimidines, Method For Their Production, Their Use For Controlling Pathogenic Fungi and Agents Containing Said Compounds” (BASF Aktiengesellschaft, priority 2005, published 2008) can be followed below.

The assay relates to Plasmopara viticola. As to the kind of experiment: Activity against Peronospora of grapevines caused by Plasmopara viticola (comparative test, protective spray). The class given is in vivo. As to conditions: leaves of potted grapevines sprayed to runoff, inoculated next day; infection on undersides of leaves determined visually; untreated 100%; active compound concentration not given. As to the method: The active compounds were prepared as a stock solution comprising 25 mg of active compound which was made up to 10 ml using a mixture of acetone and/or DMSO and the emulsifier Uniperol® EL (wetting agent having emulsifying and dispersing action based on ethoxylated alkylphenols) in a volume ratio of solvent/emulsifier of 99/1. The mixture was then made up to 100 ml with water. This stock solution was diluted with the solvent/emulsifier/water mixture described to the concentration of active compounds stated below. Leaves of potted grapevines were sprayed to runoff point with an aqueous suspension having the concentration of active compound stated below. The next day, the undersides of the leaves were inoculated with an aqueous sporangia suspension of Plasmopara viticola. The grapevines were then initially placed in a water vapor-saturated chamber at 24° C. for 48 hours and then in a greenhouse at temperatures between 20 and 30° C. for 5 days. After this time, the plants were again placed into a moist chamber for 16 hours to accelerate sporangiophore eruption. The extent of the development of the infection on the undersides of the leaves was then determined visually.

The structures appear in SMILES notation.

`CCCCc1nc2cc(C)nn2c(N)c1CCCC` [Compound 17] displayed an Infection in % of 25%.

The compound `CCCCCc1nc2cc(C)nn2c(N)c1CCCCC` [Compound I-1, 2-methyl-5,6-dipentylpyrazolo[1,5-a]pyrimidin-7-ylamine] registered an Infection in % of 3%.
